Test results: patent US20240189315A1, “Cyclic Pyridine Derivatives as cGAS Inhibitors” (Boehringer Ingelheim International GmbH, priority 2022, published 2024)

Tests used:
[1] = biological target: cellular cGAS activity in dsDNA-stimulated human whole blood (Homo sapiens (Human), UniProt Q8N884); assay: Human whole blood assay (hWB IC50): IFNα2a production after dsDNA transfection; format: cell-based; details: Table 1; dsDNA-stimulated human whole blood;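 note: IFNα-2a in plasma measured by MSD electrochemiluminescence immunoassay after 22 h at 37 °C, 8-point dilution series from 10 µM top concentration, DMSO wells as controls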
[2] = biological target: cellular cGAS activity in baculovirus-stimulated THP1-Dual cells (Homo sapiens (Human), UniProt Q8N884); assay: Human cGAS cell assay (THP1(vir) IC50): IFN induction in virus-stimulated THP1-Dual cells, IRF Lucia luciferase reporter; format: cell-based; details: Table 1; virus-stimulated THP1 cells; read-out: THP(vir) IC50;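 note: Eight-point dilution series starting at 10 µM, 1% DMSO, 18 h at 37 °C, luminescence read-out, virus-free wells as 0% and DMSO-treated virus-stimulated wells as 100%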
[3] = tested on: pathway directly downstream of cGAS in cGAMP-stimulated THP1-Dual cells; assay: cGAMP stimulated counter cell assay (THP1(cGAMP) IC50): IFN induction in cGAMP-stimulated THP1-Dual cells; format: cell-based, human; details: Table 1; for IC50: Homo sapiens, THP1-Dual, cGAMP-stimulated THP1 cells, read-out: THP(cGAMP) IC50; for Ratio THP(cGAMP) IC50/ THP(vir) IC50: selectivity for cGAS inhibition
Description: 6.2 Method: Human cGAS Cell Assay and cGAMP Stimulated Counter Cell Assay (THP1(vir) IC50 and THP1(cGAMP) IC50)
THP1-Dual™ cells (InvivoGen #thpd-nfis) expressing IRF dependent Lucia luciferase reporter were used as basis for both assays. For the detection of cellular cGAS activity cells were stimulated by a baculovirus (pFastbac-1, Invitrogen, no coding insert) infection that delivers the cGAS enzyme stimulating double-stranded DNA (measurement of THP1(vir) IC50).
For the counter assay, cells were stimulated by cGAMP (SigmaAldrich #SML1232) to activate the identical pathway independent and directly downstream of cGAS (measurement of THP1(cGAMP) IC50). Pathway activity was monitored by measuring the Lucia luciferase activity induced by either DNA stimulated cGAS enzyme activity (measurement of THP1(vir) IC50) or by cGAMP directly (measurement of THP1(cGAMP) IC50, counter assay).
Compounds were delivered in 10 mM DMSO solution, serially diluted and transferred to the 384 well assay plate (Greiner #781201) using an Echo acoustic dispenser. Typically, 8 concentrations were used with the highest concentration at 10 μM in the final assay volume followed by ˜1:5 dilution steps. DMSO concentration was set to 1% in the final assay volume. The 384 well assay plate contained 21 test compounds (column 1-22), and DMSO in column 23 and 24.
Cells, cultivated according to manufacturer conditions, were harvested by centrifugation at 300 g/10 min and were then resuspended and diluted to 1.66E5 cells/ml in fresh cell culture medium (RPMI 1640 (Gibco #A10491-01), 10% FCS (Gibco #10500), 1× GlutaMax (Gibco #35050-061), 1× Pen/Strep solution (Gibco #15140-122), 100 μg/ml Normocin (InvivoGen #ant-nr), 100 μg/ml Zeocin (InvivoGen #ant-zn), 10 μg/ml Blasticidin S (Life Technologies #A11139-03)). The baculovirus solution was then added 1:200 (have varied according to virus batch) to the cells (measurement of THP1(vir) IC50). […] 30 μL of the cell/virus-mix were added to each well of the compound plate from column 1-23 via MultiDrop Combi dispenser (5000 cells/well). In column 24, 30 μl/5000 cells/well without virus were added as a low control.
The plates were then incubated for 18 h at 37° C. in a humidified incubator.
Following that, 15 μL of QuantiLuc detection reagent (InvivoGen #rep-qlcg5) were added to each well using a MultiDrop Combi. Measurement was done immediately after the addition using an EnVision reader (US-luminescence read-mode).
Data Evaluation and Calculation:
For data evaluation and calculation, the measurement of the low control was set as 0% control and the measurement of the high control was set as 100% control. The IC50 values were calculated using the standard 4 parameter logistic regression formula. Calculation: [y=(a−d)/(1+(x/c)^b)+d], a=low value, d=high value; x=conc M; c=IC50 M; b=slope

Human cGAS enzyme = Human cGAS enzyme (Homo sapiens (Human), UniProt Q8N884); assay: Human cGAS enzyme assay (hcGAS IC50, in vitro), cGAMP formation by RapidFire MS; format: biochemical; details: Table 1;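 note: recombinant human cGAS activated by 45 bp dsDNA with 30 µM each ATP and GTP, 90 min, cGAMP vs cyclic-di-GMP standard by MS, 8-point titration from 10 µM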
Sequence of Human cGAS enzyme (Q8N884 whole entry): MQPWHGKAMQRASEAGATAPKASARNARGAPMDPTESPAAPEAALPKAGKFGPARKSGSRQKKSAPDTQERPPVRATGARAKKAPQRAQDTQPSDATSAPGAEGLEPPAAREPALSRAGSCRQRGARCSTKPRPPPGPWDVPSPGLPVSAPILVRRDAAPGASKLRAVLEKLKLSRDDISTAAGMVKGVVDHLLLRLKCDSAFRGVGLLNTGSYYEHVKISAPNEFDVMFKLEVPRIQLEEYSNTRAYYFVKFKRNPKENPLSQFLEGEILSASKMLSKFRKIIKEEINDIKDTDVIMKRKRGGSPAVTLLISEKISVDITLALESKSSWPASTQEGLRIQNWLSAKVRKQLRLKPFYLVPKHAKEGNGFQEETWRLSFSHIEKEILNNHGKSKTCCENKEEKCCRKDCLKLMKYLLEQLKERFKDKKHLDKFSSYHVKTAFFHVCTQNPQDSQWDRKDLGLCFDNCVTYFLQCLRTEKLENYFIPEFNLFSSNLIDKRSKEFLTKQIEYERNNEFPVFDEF

Sequence of cellular cGAS activity in baculovirus-stimulated THP1-Dual cells (Q8N884 whole entry): as above
Sequence of cellular cGAS activity in dsDNA-stimulated human whole blood (Q8N884 whole entry): as above

Compound	IC50 [1] [nM]	IC50 [2] [nM]	IC50 (Human cGAS enzyme) [nM]	IC50 [3] [nM]	Ratio THP(cGAMP) IC50/ THP(vir) IC50 [3]
C[C@H]1CN2CC[C@]1(F)c1cc(Cl)cnc1O[C@H]1C[C@@H](C(=O)O)N(C1)c1nc(nc3c1oc1ccccc13)C(F)(F)OCCCCC2=O [Example 15, (1R,9S,11S,34S)-4-chloro-1,25,25-trifluoro-34-methyl-31-oxo-8,15,26-trioxa-6,12,23,32,37-pentaazaheptacyclo[30.2.2.1^9,12.1^13,24.0^2,7.0^14,22.0^16,21]octatriaconta-2(7),3,5,13(37),14(22),16(21),17,19,23-nonaene-11-carboxylic acid]	47	70	11	8200	117
CC(=O)c1cnc2c(c1)[C@@]1(F)CCN(C[C@@H]1C)C(=O)CCCOCCc1nc(c3oc4ccccc4c3n1)N1C[C@H](C[C@H]1C(=O)O)O2 [Example 19]	146	73	8	> 10000	136
COc1ncccc1-c1cnc2c(c1)[C@@]1(F)CCN(C[C@@H]1C)C(=O)CCCOCCc1nc(c3oc4ccccc4c3n1)N1C[C@H](C[C@H]1C(=O)O)O2 [Example 20.01, (1R,9S,11S,34S)-1-fluoro-4-(2-methoxypyridin-3-yl)-34-methyl-31-oxo-8,15,27-trioxa-6,12,23,32,37-pentaazaheptacyclo[30.2.2.1^9,12.1^13,24.0^2,7.0^14,22.0^16,21]octatriaconta-2,4,6,13(37),14(22),16(21),17,19,23-nonaene-11-carboxylic acid]	45	19	18	8100	419
C[C@H]1CN2CC[C@]1(F)c1cc(-c3cnn(C)c3)cnc1O[C@H]1C[C@@H](C(=O)O)N(C1)c1nc(nc3c1oc1ccccc13)CCOCCCC2=O [Example 20.02]	10	8	7	7900	946
COc1cc(-c2cnc3c(c2)[C@@]2(F)CCN(C[C@@H]2C)C(=O)CCCOCCc2nc(c4oc5ccccc5c4n2)N2C[C@H](C[C@H]2C(=O)O)O3)c(F)cn1 [Example 20.03]	38	18	18	5900	321
C[C@H]1CN2CC[C@]1(F)c1cc(Cl)cnc1O[C@H]1C[C@@H](C(=O)O)N(C1)c1nc(nc3c1oc1ccccc13)C(F)(F)COCCCC2=O [Example 21, (1R,9S,11S,34S)-4-chloro-1,25,25-trifluoro-34-methyl-31-oxo-8,15,27-trioxa-6,12,23,32,37-penta-azaheptacyclo[30.2.2.1^9,12.1^13,24.0^2,7.0^14,22.0^16,21]octatriaconta-2,4,6,13(37),14(22),16(21),17,19,23-nonaene-11-carboxylic acid]	7	3	5	10000	3281

Further lines, with some results ahead:

IC50 [1] [nM]	IC50 [2] [nM]	IC50 (Human cGAS enzyme) [nM]	Compound	IC50 [3] [nM]	Ratio THP(cGAMP) IC50/ THP(vir) IC50 [3]
101	36	11	C[C@H]1CN2CC[C@]1(F)c1cc(Cl)cnc1O[C@H]1C[C@@H](C(=O)O)N(C1)c1nc(nc3c1oc1ccccc13)CCOCCCC2=O [Example 16]	6600	184
96	140	13	C[C@H]1CN2CC[C@]1(F)c1cc(Br)cnc1O[C@H]1C[C@@H](C(=O)O)N(C1)c1nc(nc3c1oc1ccccc13)CCOCCCC2=O [Example 17]	5600	40
18	35	6	C#Cc1cnc2c(c1)[C@@]1(F)CCN(C[C@@H]1C)C(=O)CCCOCCc1nc(c3oc4ccccc4c3n1)N1C[C@H](C[C@H]1C(=O)O)O2 [Example 18, (1R,9S,11S,34S)-4-ethynyl-1-fluoro-34-methyl-31-oxo-8,15,27-trioxa-6,12,23,32,37-pentaazaheptacyclo[30.2.2.1^9,12.1^13,24.0^2,7.0^14,22.0^16,21]octatriaconta-2,4,6,13,16,18,20,22,24(37)-nonaene-11-carboxylic acid]	4300	122
